Where two headings read alike, the source gives them in different places.
Assays:
in vitro = in vitro ADME, human
Protocol: Compound metabolism in human liver microsomes was measured by LC-MS analytical assay procedures as follows. First, human liver microsomes (HLM) were thawed and diluted to 5 mg/mL with cold 100 mM potassium phosphate (KPO4) buffer. Appropriate amounts of KPO4 buffer, NADPH-regenerating solution (containing B-NADP, glucose-6-phosphate, glucose-6-phosphate dehydrogenase, and MgCl2), and HLM were preincubated in 13 x 100 mm glass tubes at 37 C for 10 min. (3 tubes per test compound--triplicate). Test compound (5 µM final) was added to each tube to initiate reaction and was mixed by gentle vortexing, followed by incubation at 37 °C. At t=0, 2 h, a 250-µL sample was removed from each incubation tube to separate 12 x 75 mm glass tubes containing 1 mL ice-cold acetonitrile with 0.05 µM reserpine. […] Supernatant was transferred to new 12 x 75 mm glass tubes and evaporated by Speed-Vac centrifugal vacuum evaporator. Samples were reconstituted in 200 µL 0.1 % formic acid/acetonitrile (90/10) and vortexed vigorously to dissolve. The samples were then transferred to separate polypropylene microcentrifuge tubes and centrifuged at 14000 x g for 10 min. (Fisher Micro 14, S/N M0017580). For each replicate (#1-3) at each timepoint (0 and 2 h), an aliquot sample of each test compound was combined into a single HPLC vial insert (6 total samples) for LC-MS analysis, which is described below.

[1] = tested on: human umbilical vein endothelial cells (HUVEC); assay: HUVEC proliferation assay (VEGF-stimulated, MTT); format: cell-based; settings: Table 1
Protocol: This assay determines the ability of a test compound to inhibit the growth factor-stimulated proliferation of human umbilical vein endothelial cells ("HUVEC"). HUVEC cells (passage 3-4, Clonetics, Corp.) were thawed into EGM2 culture medium (Clonetics Corp) in T75 flasks. Fresh EGM2 medium was added to the flasks 24 hours later. Four or five days later, cells were exposed to another culture medium (F12K medium supplemented with 10% fetal bovine serum (FBS), 60 µg/mL endothelial cell growth supplement (ECGS), and 0.1 mg/mL heparin). Exponentially-growing HUVEC cells were used in experiments thereafter. Ten to twelve thousand HUVEC cells were plated in 96-well dishes in 100 µl of rich, culture medium (described above). The cells were allowed to attach for 24 hours in this medium. The medium was then removed by aspiration and 105 µl of starvation media (F12K+1% FBS) was added to each well. After 24 hours, 15 µl of test agent dissolved in 1% DMSO in starvation medium or this vehicle alone was added into each treatment well; the final DMSO concentration was 0.1%. One hour later, 30 µl of VEGF (30 ng/mL) in starvation media was added to all wells except those containing untreated controls; the final VEGF concentration was 6 ng/mL. Cellular proliferation was quantified 72 hours later by MTT dye reduction, at which time cells were exposed for 4 hours MTT (Promega Corp.).

LCK tyrosine kinase = LCK tyrosine kinase (Homo sapiens, UniProt P06239, C224D/P223M); assay: LCK spectrophotometric assay; format: biochemical; settings: Table 1; compound concentration 1 µM; read-out: Lck-P* (% inhibition)
Protocol: The spectrophotometric assay was carried out as described above for VEGF-R2, except for the following changes in concentration: LCK = 60 nM, MgCl2 = 0 mM, poly(E4Y1) = 20 mM.

human FGF-R1 = human FGF-R1 (Homo sapiens, UniProt P11362, C488A/C584S/L457V); assay: FGF-R spectrophotometric assay; format: biochemical; settings: Table 1; compound concentration 1 µM; read-out: FGF-P* (% inhibition)
Protocol: The spectrophotometric assay was carried out as described above for VEGF-R2, except for the following changes in concentration: FGF-R = 50 nM, ATP = 2 mM, and poly(E4Y1) =15 mM.

[2] = target: unphosphorylated VEGF-R2Δ50 (Homo sapiens, UniProt P35968, DEL940-989/E990V); assay: biochemical; settings: for inhibition at 0.05 µM: read-out: FLVK ** (% inhibition); for inhibition at 1 µM: read-out: FLVK* (% inhibition)
[3] = Homo sapiens, HUVEC, + albumin, read-out: HUVEC + albumin IC50
[4] = Homo sapiens, HUVEC, read-out: HUVEC IC50
[5] = human liver microsomes, 5 µM test compound, 37 °C, 2 h

Sequence of unphosphorylated VEGF-R2Δ50 (P35968 with tags, fused parts or gaps DEL940-989/E990V limits assumed): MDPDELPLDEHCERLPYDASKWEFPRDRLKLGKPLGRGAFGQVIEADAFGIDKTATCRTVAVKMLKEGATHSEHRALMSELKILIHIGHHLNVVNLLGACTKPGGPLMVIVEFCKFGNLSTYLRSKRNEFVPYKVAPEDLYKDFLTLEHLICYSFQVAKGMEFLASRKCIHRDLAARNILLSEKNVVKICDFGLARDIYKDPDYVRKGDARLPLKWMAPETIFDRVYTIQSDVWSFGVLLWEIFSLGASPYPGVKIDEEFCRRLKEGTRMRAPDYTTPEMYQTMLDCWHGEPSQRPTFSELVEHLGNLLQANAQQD
Sequence of LCK tyrosine kinase (P06239 223-509 P223M/C224D): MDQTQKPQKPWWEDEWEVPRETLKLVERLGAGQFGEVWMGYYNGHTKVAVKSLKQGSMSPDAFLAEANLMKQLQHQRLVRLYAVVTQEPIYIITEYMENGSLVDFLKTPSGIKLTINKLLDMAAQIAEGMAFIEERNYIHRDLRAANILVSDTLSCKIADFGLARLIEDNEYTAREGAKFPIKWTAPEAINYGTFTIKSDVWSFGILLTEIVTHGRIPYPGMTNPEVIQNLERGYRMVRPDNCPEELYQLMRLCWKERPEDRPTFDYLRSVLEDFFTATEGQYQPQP
Sequence of human FGF-R1 (P11362 456-766 L457V/C488A/C584S): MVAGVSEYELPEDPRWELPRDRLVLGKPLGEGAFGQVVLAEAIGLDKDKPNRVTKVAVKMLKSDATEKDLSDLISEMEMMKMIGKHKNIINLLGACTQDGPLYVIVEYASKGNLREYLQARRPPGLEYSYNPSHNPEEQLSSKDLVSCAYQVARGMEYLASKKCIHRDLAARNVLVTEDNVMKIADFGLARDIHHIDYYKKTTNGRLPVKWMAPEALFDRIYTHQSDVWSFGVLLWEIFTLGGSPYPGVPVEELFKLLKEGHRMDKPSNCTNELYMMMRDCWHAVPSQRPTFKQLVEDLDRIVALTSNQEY

| Compound | IC50 [1, 3] | inhibition at 1 µM (LCK tyrosine kinase) | inhibition at 1 µM (human FGF-R1) | inhibition at 0.05 µM [2] | also measured |
| --- | --- | --- | --- | --- | --- |
| CN(c1cccc(NC(=O)c2ccccc2)c1)c1ccc2c(/C=C/c3ccccc3)n[nH]c2c1 [12(b), N-{3-[Methyl-(3-styryl-1H-indazol-6-yl)-amino]-phenyl}-benzamide] | 44 nM | 32% |  |  | remaining at 2 h, 5 µM (in vitro; human, microsomes): 29%; IC50 [1, 4]: 4.8 nM |
| O=C(c1cccc(NC(=O)c2cccc(Cl)n2)c1)c1ccc2c(/C=C/c3ccccc3)n[nH]c2c1 [19(m), 6-[3-(6-chloropyridin-2-ylcarboxamido)benzoyl]-3-E-styryl-1H-indazole] | 94 nM | 35% | 23% |  | % remain (HLM, 2 h) (in vitro; [5]): 61% |
| O=C(Nc1cccc(C(=O)c2ccc3c(/C=C/c4ccccc4)n[nH]c3c2)c1)c1ccnc(Cl)c1 [19(o), 6-[3-(2-chloropyridin-4-ylcarboxamido)benzoyl]-3-E-styryl-1H-indazole] |  |  |  | 89% |  |
| CNC(=O)c1ccccc1Nc1ccc2c(/C=C/c3ccccn3)n[nH]c2c1 [Example 39(a), 6-[2-(Methylcarbamoyl)phenylanzino]-3-E-[2-(pyridin-2-yl)ethenyl]-1H-indazole] |  |  |  |  | % remain (HLM, 2 h) (in vitro; human, microsomes, 2 h, 5 µM): 70% |
| O=CNc1ccccc1/C=C/c1n[nH]c2cc(C(=O)c3cccc(NC(=O)c4ccccc4)c3)ccc12 [Example 43, 6-(3-Benzamidobenzoyl)-3-E-[2-(2-formamidophenyl)ethenyl]-1H-indazole] |  |  |  |  | % remain (HLM, 2 h) (in vitro; human, microsomes, 2 h, 5 µM): 2% |
| O=C(c1cccc(NC(=O)c2cccc3[nH]ccc23)c1)c1ccc2c(/C=N/n3cccc3)n[nH]c2c1 [Example 45(a), 6-[3-(Indol-4-ylcarboxamido)benzoyl]-3-E-[N-(pyrrol-1-yl)iminomethyl]-1H-indazole] |  |  |  |  | % remain (HLM, 2 h) (in vitro; human, microsomes, 2 h, 5 µM): 97% |
| Cc1cc(C(=O)Nc2cc(Nc3ccc4c(/C=C/c5ccccn5)n[nH]c4c3)c(F)cc2C)n(C)n1 [Example 48(b), 6-[N-(5-((1,3-Dimethyl-1H-pyrazol-5-yl)carboxamido)-2-fluoro-4-methylphenyl)amino]-3-E-[2-(pyridin-2-yl)ethenyl]-1H-indazole] |  | 6% | 77% | 97% |  |
| C#CCNC(=O)c1ccccc1C(=O)c1ccc2c(/C=C/c3ccccn3)n[nH]c2c1 [Example 56] |  |  |  | 5% |  |
| C(=C\c1n[nH]c2cc(-c3cccnc3)ccc12)/c1ccccc1 [Reference Example 27(e), 6-pyridin-3-yl-3-E-styryl-1H-indazole] |  |  |  |  | inhibition at 1 µM [2]: 34% |
| C(=C\c1n[nH]c2cc(-c3ccncc3)ccc12)/c1ccccc1 [Reference Example 27(f)] |  |  |  |  | inhibition at 1 µM [2]: 49% |
| Oc1ccc(-c2ccc3c(/C=C/c4ccccc4)n[nH]c3c2)cn1 [Reference Example 28(c), 6-(2-hydroxypyridin-5-yl)-3-E-styryl-1H-indazole] |  |  |  |  | inhibition at 1 µM [2]: 34% |
| COc1cccc(/C=C/c2n[nH]c3cc(-c4ccncc4)ccc23)c1 [Reference Example 29(e)] |  |  |  |  | inhibition at 1 µM [2]: 33% |
| C(=C\c1n[nH]c2cc(-c3ccncc3)ccc12)/c1nc2ccccc2[nH]1 [Reference Example 29(q), 6-pyrid-4-yl-3-E-[2-(benzimidazol-2-yl)ethenyl]-1H-indazole] |  |  |  |  | inhibition at 1 µM [2]: 11% |
| NC(=O)c1ccccc1Sc1ccc2c(/C=C/c3ccccn3)n[nH]c2c1 [Reference Example 35(d), 6-(2-Carbamoylphenylsulfanyl)-3-E-[2-(pyridin-2-yl)ethenyl]-1H-indazole] |  |  |  | 76% |  |
| O=C(NCc1cccc(F)c1)c1ccccc1Sc1ccc2c(/C=C/c3ccccn3)n[nH]c2c1 [Reference Example 35(ff)] | 5.8 nM | 25% | 75% |  | % remain (HLM, 2 h) (in vitro; [5]): 31% |
| CNCCNC(=O)c1ccccc1Sc1ccc2c(/C=C/c3ccccn3)n[nH]c2c1 [Reference Example 35(gg), 6-[2-(2-(methylamino)ethylcarbamoyl)phenylsulfanyl]-3-E-[2-(pyridin-2-yl)ethenyl]-1H-indazole] |  |  |  | 23% |  |
| CN(O)C(=O)c1ccccc1Sc1ccc2c(/C=C/c3ccccn3)n[nH]c2c1 [Reference Example 35(o), 6-[2-(N-Hydroxy-N-methylcarbamoyl)phenylsufanyl]-3-E-[2-(pyridin-2-yl)ethenyl]-1H-indazole] |  | 17% | 44% | 39% |  |
| O=C(NCc1ccncc1)c1ccccc1Sc1ccc2c(/C=C/c3ccccn3)n[nH]c2c1 [Reference Example 35(p), 6-[2-((Pyrid-4-yl)methylcarbamoyl)phenylsulfanyl]-3-E-[2-(pyridin-2-yl)ethenyl]-1H-indazole] |  | 5% | 11% | 62% |  |
| CONC(=O)c1ccccc1Sc1ccc2c(/C=C/c3ccccn3)n[nH]c2c1 [Reference Example 35(r), 6-[2-(methoxycarbamoyl)phenylsulfanyl]-3-E-[2-(pyridin-2-yl)ethenyl]-1H-indazole] | 2.3 nM | 16% |  |  | % remain (HLM, 2 h) (in vitro; [5]): 51%; IC50 [1, 4]: 0.36 nM |
| N#CCNC(=O)c1ccccc1Sc1ccc2c(/C=C/c3ccccn3)n[nH]c2c1 [Reference Example 35(w), 6-[2-(Cyanomethylcarbamoyl)phenylsulfanyl]-3-E-[2-(pyridin-2-yl)ethenyl]-1H-indazole] | 35 nM |  |  | 59% |  |
| O=C(N/N=C/c1ccccn1)c1ccccc1Sc1ccc2c(/C=C/c3ccccn3)n[nH]c2c1 [Reference Example 36(b)] |  | 22% | 43% | 85% |  |
| O=C(N/N=C/C(F)(F)F)c1ccccc1Sc1ccc2c(/C=C/c3ccccn3)n[nH]c2c1 [Reference Example 36(c)] |  | 28% | 60% | 89% |  |
| O=C(Nc1cccc(C(=O)c2ccc3c(/C=C/c4ccccn4)n[nH]c3c2)c1)c1ccncc1 [Reference Example 41(b), 6-[3-(pyridin-4-ylcarboxamido)benzoyl]-3-E-[2-(pyridin-2-yl)ethenyl]-1H-indazole] | 9.8 nM | 24% | 31% |  | remaining at 2 h, 5 µM (in vitro; human liver microsomes, 5 µM test compound, 37 °C, 2 h, read-out: % remain (HLM, 2 h)): 80%; IC50 [1, 4]: 2 nM |
| CC(=O)c1ccc(C(=O)Nc2cccc(C(=O)c3ccc4c(/C=C/c5ccccn5)n[nH]c4c3)c2)s1 [Reference Example 41(e), 6-[3-((5-acetylthien-2-yl)carboxamido)benzoyl]-3-E-[2-(pyridin-2-yl)ethenyl]-1H-indazole] | 5.6 nM | 21% | 31% |  | % remain (HLM, 2 h) (in vitro; [5]): 22%; IC50 [1, 4]: 0.15 nM; IC50 ([1]; + albumin, read-out: HUVEC + albumin IC50): 6.1 nM |
| CC(=O)Nc1cc(C(=O)c2ccc3c(/C=C/c4ccccn4)n[nH]c3c2)ccc1C [Reference Example 41(gg), 6-(3-acetamido-4-methylbenzoyl)-3-E-[2-(pyridin-2-yl)ethenyl]-1H-indazole] | 9.5 nM | 27% |  | 84% |  |
| Cc1cc(C(=O)Nc2cccc(C(=O)c3ccc4c(/C=C/c5ccccn5)n[nH]c4c3)c2)n(C(C)C)n1 [Reference Example 41(x), 6-[3-((1-Isopropyl-3-methyl-1H-pyrazol-5-yl)carboxamido)benzoyl]-3-E-[2-(pyridin-2-yl)ethenyl]-1H-indazole] | 4.6 nM | 66% |  | 98% |  |

Source: patent EP1614683B1, “Indazole compounds and pharmaceutical compositions for inhibiting protein kinases, and methods for their use” (priority 1999, dated 2001)
